Test results taken from US20120004215A1 (priority 2009, published 2012).

Target: α7-subtype of nicotinic receptors (Mus musculus, UniProt P49582)
Type: in vivo, mice
Settings: ex vivo, mouse hippocampal membranes; dose inhibiting specific binding of 3H-α-bungarotoxin (1 nM) by 50%

Chain of α7-subtype of nicotinic receptors (P49582 23-502): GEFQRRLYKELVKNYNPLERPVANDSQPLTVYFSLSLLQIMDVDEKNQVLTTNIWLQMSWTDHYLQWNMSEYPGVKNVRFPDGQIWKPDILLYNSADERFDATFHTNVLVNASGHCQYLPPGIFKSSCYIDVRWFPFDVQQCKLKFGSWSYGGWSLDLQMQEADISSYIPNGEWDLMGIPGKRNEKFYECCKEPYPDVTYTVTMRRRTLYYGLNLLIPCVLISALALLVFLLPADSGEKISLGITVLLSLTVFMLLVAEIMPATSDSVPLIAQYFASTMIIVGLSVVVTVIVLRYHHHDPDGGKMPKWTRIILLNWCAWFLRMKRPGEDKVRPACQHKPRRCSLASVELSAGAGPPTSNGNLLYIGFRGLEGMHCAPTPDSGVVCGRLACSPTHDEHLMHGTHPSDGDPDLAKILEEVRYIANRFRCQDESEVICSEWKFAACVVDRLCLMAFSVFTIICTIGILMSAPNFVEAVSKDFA

## O=c1c2ccccc2nnn1-c1cnc(N2CC[N+]3([O-])CCC2CC3)nc1 [Compound 1, 3-[2-(1-Oxy-1,4-diaza-bicyclo[3.2.2]non-4-yl)-pyrimidin-5-yl]-3H-benzo[d][1,2,3]-triazin-4-one]
  EC50 (mg/kg), Inhibition of 3H-α-Bungarotoxine Binding: 9.4 mg/kg
